The assay has as its target T1, Recombinant human CBP containing the bromodomain (CBP-BD (1043-1159)) (Homo sapiens, UniProt Q92793).
T1 construct: Recombinant human CBP bromodomain (CBP-BD (1043-1159)); made in house; host or cells: E. coli BL21-CodonPlus (DE3), modified pET vector
The experiment in a line: CBP Alphascreen binding assay. Conditions: read-out: CREBBP (CBP) IC50. The procedure, abridged: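 Buffer: 50 mM HEPES pH 7.5, 50 mM NaCl, 0.01% BSA, 0.01% Triton X-100, 2 mM DTT. The signal was normalised to plate controls and fitted with a four-parameter curve to give IC50.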

Each structure is given as a SMILES string.

T1 sequence (Q92793 1081-1197): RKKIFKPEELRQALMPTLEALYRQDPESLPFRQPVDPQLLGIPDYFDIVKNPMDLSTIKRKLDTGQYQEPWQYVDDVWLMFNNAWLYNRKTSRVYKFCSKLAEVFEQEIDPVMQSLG

Regarding `Cc1noc(C)c1-c1cnc2c(-c3ccccc3)cn(-c3c(OCC(F)(F)F)cc(C(=O)O)cc3OCC(F)(F)F)c2c1` [P-0298, 4-(6-(3,5-dimethylisoxazol-4-yl)-3-phenyl-1H-pyrrolo[3,2-b]pyridin-1-yl)-3,5-bis(2,2,2-trifluoroethoxy)benzoic acid], the IC50 – broadly, the midpoint of a concentration-inhibition curve – is 0.1 to 1000 nM. Turning to `Cc1noc(C)c1-c1cnc2c(c1)c(-c1ccc(C(=O)O)cc1OC(C)C)cn2-c1cnn(CC(C)(C)O)c1` [P-0299, 4-(5-(3,5-dimethylisoxazol-4-yl)-1-(1-(2-hydroxy-2-methylpropyl)-1H-pyrazol-4-yl)-1H-pyrrolo[2,3-b]pyridin-3-yl)-3-isopropoxybenzoic acid], the IC50 lay within 0.1 to 1000 nM.

Turning to `Cc1noc(C)c1-c1cnc2c(c1)c(-c1ccc(C(=O)O)cc1OC(C)C)cn2-c1cnc(N2CCC2)nc1` [P-0300, 4-(1-(2-(azetidin-1-yl)pyrimidin-5-yl)-5-(3,5-dimethylisoxazol-4-yl)-1H-pyrrolo[2,3-b]pyridin-3-yl)-3-isopropoxybenzoic acid], the IC50 lay in the range of 0.1 to 1000 nM. Take `Cc1noc(C)c1-c1cnc2c(c1)c(-c1ccc(C(=O)O)cc1OC(C)C)cn2[C@H]1CCOC1` [P-0301, (S)-4-(5-(3,5-dimethylisoxazol-4-yl)-1-(tetrahydrofuran-3-yl)-1H-pyrrolo[2,3-b]pyridin-3-yl)-3-isopropoxybenzoic acid]: the IC50 was in the range of 0.1 to 1000 nM. The figure for `Cc1noc(C)c1-c1cnc2c(c1)c(-c1ccc(S(C)(=O)=O)cc1OC(C)C)cn2-c1ccccc1` [P-0302, 4-(3-(2-isopropoxy-4-(methylsulfonyl)phenyl)-1-phenyl-1H-pyrrolo[2,3-b]pyridin-5-yl)-3,5-dimethylisoxazole] is 0.1 to 1000 nM; for `CCCn1nc(C(=O)O)c(N)c1-c1cn(-c2ccc(F)cc2F)c2ncc(-c3c(C)noc3C)cc12` [P-0303, 4-amino-5-(1-(2,4-difluorophenyl)-5-(3,5-dimethylisoxazol-4-yl)-1H-pyrrolo[2,3-b]pyridin-3-yl)-1-propyl-1H-pyrazole-3-carboxylic acid] it is 0.1 to 1000 nM. As to `CCCn1nc(C(=O)O)c(NCC)c1-c1cn(-c2ccc(F)cc2F)c2ncc(-c3c(C)noc3C)cc12` [P-0304, 5-(1-(2,4-difluorophenyl)-5-(3,5-dimethylisoxazol-4-yl)-1H-pyrrolo[2,3-b]pyridin-3-yl)-4-(ethylamino)-1-propyl-1H-pyrazole-3-carboxylic acid], the IC50 lay in the range of 0.1 to 1000 nM. Under `Cc1nnn(C)c1-c1cnc2c(c1)c(-c1ccc(C(=O)O)cc1OC(F)(F)F)cn2CC/C=C/C1CC1` [P-0305, (E)-4-(1-(4-cyclopropylbut-3-en-1-yl)-5-(1,4-dimethyl-1H-1,2,3-triazol-5-yl)-1H-pyrrolo[2,3-b]pyridin-3-yl)-3-(trifluoromethoxy)benzoic acid] stands 0.1 to 1000 nM; under `Cc1noc(C)c1-c1cnc2c(c1)c(-c1ccc(C(=O)O)cc1OCC(F)F)cn2-c1ccncc1Cl` [P-0306, 4-(1-(3-chloropyridin-4-yl)-5-(3,5-dimethylisoxazol-4-yl)-1H-pyrrolo[2,3-b]pyridin-3-yl)-3-(2,2-difluoroethoxy)benzoic acid], 0.1 to 1000 nM. Under `Cc1noc(C)c1-c1cnc2c(c1)c(-c1ccc(C(=O)O)cc1OC(F)(F)F)cn2-c1ccccc1Cl` [P-0307, 4-(1-(2-chlorophenyl)-5-(3,5-dimethylisoxazol-4-yl)-1H-pyrrolo[2,3-b]pyridin-3-yl)-3-(trifluoromethoxy)benzoic acid] stands 0.1 to 1000 nM; under `Cc1noc(C)c1-c1cnc2c(c1)c(-c1ccc(C(=O)O)cc1OC(F)(F)F)cn2-c1ccccc1C1CC1` [P-0308, 4-(1-(2-cyclopropylphenyl)-5-(3,5-dimethylisoxazol-4-yl)-1H-pyrrolo[2,3-b]pyridin-3-yl)-3-(trifluoromethoxy)benzoic acid], 0.1 to 1000 nM. Consider `Cc1noc(C)c1-c1cnc2c(c1)c(-c1ccc(C(=O)O)cc1OC(F)(F)F)cn2-c1ccccc1C#N` [P-0309, 4-(1-(2-cyanophenyl)-5-(3,5-dimethylisoxazol-4-yl)-1H-pyrrolo[2,3-b]pyridin-3-yl)-3-(trifluoromethoxy)benzoic acid], for which the IC50 lay in the range of 0.1 to 1000 nM. As for `Cc1cc(C#N)ccc1-n1cc(-c2ccc(C(=O)O)cc2OC(F)(F)F)c2cc(-c3c(C)noc3C)cnc21` [P-0310, 4-(1-(4-cyano-2-methylphenyl)-5-(3,5-dimethylisoxazol-4-yl)-1H-pyrrolo[2,3-b]pyridin-3-yl)-3-(trifluoromethoxy)benzoic acid], the concentration for half-maximal inhibition (IC50) was 0.1 to 1000 nM. Regarding `COc1ccc(-n2cc(-c3ccc(C(=O)O)cc3OC(F)(F)F)c3cc(-c4c(C)noc4C)cnc32)c(F)c1` [P-0311, 4-(5-(3,5-dimethylisoxazol-4-yl)-1-(2-fluoro-4-methoxyphenyl)-1H-pyrrolo[2,3-b]pyridin-3-yl)-3-(trifluoromethoxy)benzoic acid], the IC50 is 0.1 to 1000 nM. The figure for `C=C(C)c1ccccc1-n1cc(-c2ccc(C(=O)O)cc2OC(F)(F)F)c2cc(-c3c(C)noc3C)cnc21` [P-0312, 4-(5-(3,5-dimethylisoxazol-4-yl)-1-(2-(prop-1-en-2-yl)phenyl)-1H-pyrrolo[2,3-b]pyridin-3-yl)-3-(trifluoromethoxy)benzoic acid] is 0.1 to 1000 nM. Under `Cc1noc(C)c1-c1cnc2c(c1)c(-c1ccc(C(=O)O)cc1OC(F)(F)F)cn2-c1ccc(C#N)cc1` [P-0313, 4-(1-(4-cyanophenyl)-5-(3,5-dimethylisoxazol-4-yl)-1H-pyrrolo[2,3-b]pyridin-3-yl)-3-(trifluoromethoxy)benzoic acid] stands 0.1 to 1000 nM; under `Cc1noc(C)c1-c1cnc2c(c1)c(-c1ccc(C(=O)O)cc1OC(F)(F)F)cn2-c1ccc(C(C)(C)O)cc1` [P-0314, 4-(5-(3,5-dimethylisoxazol-4-yl)-1-(4-(2-hydroxypropan-2-yl)phenyl)-1H-pyrrolo[2,3-b]pyridin-3-yl)-3-(trifluoromethoxy)benzoic acid], 0.1 to 1000 nM; under `Cc1noc(C)c1-c1cnc2c(c1)c(-c1ccc(C(=O)O)cc1OC(F)(F)F)cn2-c1ccsc1` [P-0315, 4-(5-(3,5-dimethylisoxazol-4-yl)-1-(thiophen-3-yl)-1H-pyrrolo[2,3-b]pyridin-3-yl)-3-(trifluoromethoxy)benzoic acid], 0.1 to 1000 nM.

(Values after patent publication US11446287B2, “Compounds and methods for EP300 or CBP modulation and indications therefor” (Opna Immuno-Oncology SA, priority 2019, dated 2022).)
